IC50 data for 15 molecules are collected here from US20250145665A1, “MACROCYCLIC PEPTIDES USEFUL AS MODULATORS OF TNF ALPHA” (Bristol-Myers Squibb Company, priority 2023, published 2025).

Positions of bridges follow the written chain, without caps; N, C: chain ends. Non-standard residues stand in square brackets, D forms with d. Residues, ends and D or L forms follow the SMILES beside them. Bip(4'-COOH) = N[C@@H](Cc1ccc(-c2ccc(C(=O)O)cc2)cc1)C(=O)O; Bip(4'-NHAc) = CC(=O)Nc1ccc(-c2ccc(C[C@H](N)C(=O)O)cc2)cc1; Phe(4-CF3) = N[C@@H](Cc1ccc(C(F)(F)F)cc1)C(=O)O; Ala(morpholin-4-yl) = N[C@@H](CN1CCOCC1)C(=O)O; Phe(3-CONH2) = NC(=O)c1cccc(C[C@H](N)C(=O)O)c1; Bip = N[C@@H](Cc1ccc(-c2ccccc2)cc1)C(=O)O; Morpholine(3S-CO) = O=C(O)[C@@H]1COCCN1; Bta = N[C@@H](Cc1csc2ccccc12)C(=O)O; Val(3-OH) = CC(C)(O)[C@H](N)C(=O)O; hArg = N=C(N)NCCCC[C@H](N)C(=O)O; 2Pal = N[C@@H](Cc1ccccn1)C(=O)O; Pip = O=C(O)[C@@H]1CCCCN1; Nle = CCCC[C@H](N)C(=O)O; Aze = O=C(O)[C@@H]1CCN1; Abu = CC[C@H](N)C(=O)O; Sar = CNCC(=O)O Where only a bound is given, the exact number is not on record here.

In this assay the target is TNFα (Homo sapiens, UniProt P01375). The assay is described as follows: TNF-Induced HEK-Blue Assay. In kind it is cell-based. The following applies: HEK-Blue-CD40L cells, NF-kB-driven secreted alkaline phosphatase reporter; TNFα 0.5 ng/ml; 18 h; read-out: TNF induced HEK-Blue assay IC50 value.
TNFα, sequence (P01375 77-233 limits assumed): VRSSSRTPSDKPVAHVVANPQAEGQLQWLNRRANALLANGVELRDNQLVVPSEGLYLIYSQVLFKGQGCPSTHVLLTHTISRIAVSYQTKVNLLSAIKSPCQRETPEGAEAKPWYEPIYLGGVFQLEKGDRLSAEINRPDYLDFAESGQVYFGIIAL
The term IC50 denotes the midpoint of a concentration-inhibition curve. Take `CC(C)C[C@@H]1NC(=O)[C@H](Cc2cccc(C(N)=O)c2)NC(=O)[C@H](C(C)C)NC(=O)[C@@H]2CCCN2C(=O)[C@H](C(C)C)NC(=O)[C@@H](CCCNC(=N)N)NC(=O)[C@H](CC(=O)O)NC(=O)[C@H](Cc2ccc(O)cc2)NC(=O)CN(C)C(=O)[C@H](Cc2ccc(-c3ccccc3)cc2)NC(=O)[C@H](Cc2ccc(-c3ccccc3)cc2)NC(=O)[C@H](CN2CCOCC2)NC(=O)CSC[C@@H](C(=O)NCC(N)=O)NC1=O` [Example 156] ({CH2CO}-[Ala(morpholin-4-yl)][Bip][Bip][Sar]YD[dR]VPV[Phe(3-CONH2)]LCG-NH2; thioether N-13): the IC50 is 50 to 200 nM. Regarding `CC(C)C[C@@H]1NC(=O)[C@H](Cc2ccc(C(F)(F)F)cc2)NC(=O)[C@H](C(C)C)NC(=O)[C@@H]2CCCN2C(=O)[C@H](C(C)C)NC(=O)[C@@H](CCCNC(=N)N)NC(=O)[C@H](CC(=O)O)NC(=O)[C@H](Cc2ccc(O)cc2)NC(=O)CN(C)C(=O)[C@H](Cc2ccc(-c3ccccc3)cc2)NC(=O)[C@H](Cc2ccc(-c3ccccc3)cc2)NC(=O)[C@H](CN2CCOCC2)NC(=O)CSC[C@@H](C(=O)NCC(N)=O)NC1=O` [Example 157] ({CH2CO}-[Ala(morpholin-4-yl)][Bip][Bip][Sar]YD[dR]VPV[Phe(4-CF3)]LCG-NH2; thioether N-13), the IC50 lay within 200 to 2000 nM. Then `CC(C)C[C@@H]1NC(=O)[C@H](Cc2csc3ccccc23)NC(=O)[C@H](C(C)C)NC(=O)[C@@H]2CCCN2C(=O)[C@H](C(C)C)NC(=O)[C@@H](CCCNC(=N)N)NC(=O)[C@H](CC(=O)O)NC(=O)[C@H](Cc2ccc(O)cc2)NC(=O)CN(C)C(=O)[C@H](Cc2ccc(-c3ccccc3)cc2)NC(=O)[C@H](Cc2ccc(-c3ccccc3)cc2)NC(=O)[C@H](CN2CCOCC2)NC(=O)CSC[C@@H](C(=O)NCC(N)=O)NC1=O` [Example 158] ({CH2CO}-[Ala(morpholin-4-yl)][Bip][Bip][Sar]YD[dR]VPV[Bta]LCG-NH2; thioether N-13), with 200 to 2000 nM. As to `CC(C)C[C@@H]1NC(=O)[C@H](CCCCNC(=N)N)NC(=O)[C@H](C(C)C)NC(=O)[C@@H]2CCCN2C(=O)[C@H](C(C)C)NC(=O)[C@@H](CCCNC(=N)N)NC(=O)[C@H](CC(=O)O)NC(=O)[C@H](Cc2ccc(O)cc2)NC(=O)CN(C)C(=O)[C@H](Cc2ccc(-c3ccccc3)cc2)NC(=O)[C@H](Cc2ccc(-c3ccccc3)cc2)NC(=O)[C@H](CN2CCOCC2)NC(=O)CSC[C@@H](C(=O)NCC(N)=O)NC1=O` [Example 159] ({CH2CO}-[Ala(morpholin-4-yl)][Bip][Bip][Sar]YD[dR]VPV[hArg]LCG-NH2; thioether N-13), the IC50 was less than 50 nM. With `CC(=O)Nc1ccc(-c2ccc(C[C@@H]3NC(=O)[C@H](Cc4ccc(-c5ccccc5)cc4)NC(=O)[C@H](CN4CCOCC4)NC(=O)CSC[C@@H](C(=O)NCC(N)=O)NC(=O)[C@H](CC(C)C)NC(=O)[C@H](CCCNC(=N)N)NC(=O)[C@H](C(C)(C)O)NC(=O)[C@@H]4CCCN4C(=O)[C@H](C(C)C)NC(=O)[C@@H](CCCNC(=N)N)NC(=O)[C@H](CC(=O)O)NC(=O)[C@@H]4CCCN4C(=O)CN(C)C3=O)cc2)cc1` [Example 160] ({CH2CO}-[Ala(morpholin-4-yl)][Bip][Bip(4'-NHAc)][Sar]PD[dR]VP[Val(3-OH)]RLCG-NH2; thioether N-13), the IC50 is 50 to 200 nM. Then `CC[C@@H]1NC(=O)[C@@H]2CCCN2C(=O)[C@H](C(C)C)NC(=O)[C@@H](CCCNC(=N)N)NC(=O)[C@H](CC(=O)O)NC(=O)[C@H](Cc2ccc(O)cc2)NC(=O)CN(C)C(=O)[C@H](Cc2ccc(-c3ccccc3)cc2)NC(=O)[C@H](Cc2ccc(-c3ccccc3)cc2)NC(=O)[C@H](CN2CCOCC2)NC(=O)CSC[C@@H](C(=O)NCC(N)=O)NC(=O)[C@H](CC(C)C)NC(=O)[C@H](Cc2ccc(O)cc2)NC1=O` [Example 161] ({CH2CO}-[Ala(morpholin-4-yl)][Bip][Bip][Sar]YD[dR]VP[Abu]YLCG-NH2; thioether N-13), with 50 to 200 nM. Under `CC(C)C[C@@H]1NC(=O)[C@H](Cc2ccc(O)cc2)NC(=O)[C@H](C)NC(=O)[C@@H]2CCCN2C(=O)[C@H](C(C)C)NC(=O)[C@@H](CCCNC(=N)N)NC(=O)[C@H](CC(=O)O)NC(=O)[C@H](Cc2ccc(O)cc2)NC(=O)CN(C)C(=O)[C@H](Cc2ccc(-c3ccccc3)cc2)NC(=O)[C@H](Cc2ccc(-c3ccccc3)cc2)NC(=O)[C@H](CN2CCOCC2)NC(=O)CSC[C@@H](C(=O)NCC(N)=O)NC1=O` [Example 162] ({CH2CO}-[Ala(morpholin-4-yl)][Bip][Bip][Sar]YD[dR]VPAYLCG-NH2; thioether N-13) stands 50 to 200 nM. Under `CCCC[C@@H]1NC(=O)[C@@H]2CCCN2C(=O)[C@H](C(C)C)NC(=O)[C@@H](CCCNC(=N)N)NC(=O)[C@H](CC(=O)O)NC(=O)[C@H](Cc2ccc(O)cc2)NC(=O)CN(C)C(=O)[C@H](Cc2ccc(-c3ccccc3)cc2)NC(=O)[C@H](Cc2ccc(-c3ccccc3)cc2)NC(=O)[C@H](CN2CCOCC2)NC(=O)CSC[C@@H](C(=O)NCC(N)=O)NC(=O)[C@H](CC(C)C)NC(=O)[C@H](Cc2ccc(O)cc2)NC1=O` [Example 163] ({CH2CO}-[Ala(morpholin-4-yl)][Bip][Bip][Sar]YD[dR]VP[Nle]YLCG-NH2; thioether N-13) stands 200 to 2000 nM. Consider `CC(=O)Nc1ccc(-c2ccc(C[C@@H]3NC(=O)[C@H](Cc4ccc(-c5ccc(C(=O)O)cc5)cc4)NC(=O)[C@H](CN4CCOCC4)NC(=O)CSC[C@@H](C(=O)NCC(N)=O)NC(=O)[C@H](CC(C)C)NC(=O)[C@H](Cc4ccc(O)cc4)NC(=O)[C@H](C(C)C)NC(=O)[C@@H]4CCCN4C(=O)[C@H](C(C)C)NC(=O)[C@@H](CCCNC(=N)N)NC(=O)[C@H](CC(=O)O)NC(=O)[C@H](Cc4ccc(O)cc4)NC(=O)CN(C)C3=O)cc2)cc1` [Example 164] ({CH2CO}-[Ala(morpholin-4-yl)][Bip(4'-COOH)][Bip(4'-NHAc)][Sar]YD[dR]VPVYLCG-NH2; thioether N-13), for which the concentration for half-maximal inhibition (IC50) is less than 50 nM. In the case of `CC(=O)Nc1ccc(-c2ccc(C[C@@H]3NC(=O)[C@H](Cc4ccc(-c5ccc(C(=O)O)cc5)cc4)NC(=O)[C@H](CN4CCOCC4)NC(=O)CSC[C@@H](C(=O)NCC(N)=O)NC(=O)[C@H](CC(C)C)NC(=O)[C@H](CCCNC(=N)N)NC(=O)[C@H](C(C)C)NC(=O)[C@@H]4CCCN4C(=O)[C@H](C(C)C)NC(=O)[C@@H](CCCNC(=N)N)NC(=O)[C@H](CC(=O)O)NC(=O)[C@@H]4CCCN4C(=O)CN(C)C3=O)cc2)cc1` [Example 165] ({CH2CO}-[Ala(morpholin-4-yl)][Bip(4'-COOH)][Bip(4'-NHAc)][Sar]PD[dR]VPVRLCG-NH2; thioether N-13), the IC50 is less than 50 nM.

With `CC(=O)Nc1ccc(-c2ccc(C[C@@H]3NC(=O)[C@H](Cc4ccc(-c5ccc(C(=O)O)cc5)cc4)NC(=O)[C@H](CN4CCOCC4)NC(=O)CSC[C@@H](C(=O)NCC(N)=O)NC(=O)[C@H](CC(C)C)NC(=O)[C@H](Cc4ccc(O)cc4)NC(=O)[C@H](C(C)C)NC(=O)[C@@H]4CCN4C(=O)[C@H](C(C)C)NC(=O)[C@@H](CCCNC(=N)N)NC(=O)[C@H](CC(=O)O)NC(=O)[C@H](Cc4ccc(O)cc4)NC(=O)CN(C)C3=O)cc2)cc1` [Example 166] ({CH2CO}-[Ala(morpholin-4-yl)][Bip(4'-COOH)][Bip(4'-NHAc)][Sar]YD[dR]V[Aze]VYLCG-NH2; thioether N-13), the IC50 is less than 50 nM. Then `CC(=O)Nc1ccc(-c2ccc(C[C@@H]3NC(=O)[C@H](Cc4ccc(-c5ccc(C(=O)O)cc5)cc4)NC(=O)[C@H](CN4CCOCC4)NC(=O)CSC[C@@H](C(=O)NCC(N)=O)NC(=O)[C@H](CC(C)C)NC(=O)[C@H](Cc4ccc(O)cc4)NC(=O)[C@H](C(C)C)NC(=O)[C@@H]4COCCN4C(=O)[C@H](C(C)C)NC(=O)[C@@H](CCCNC(=N)N)NC(=O)[C@H](CC(=O)O)NC(=O)[C@H](Cc4ccc(O)cc4)NC(=O)CN(C)C3=O)cc2)cc1` [Example 167] ({CH2CO}-[Ala(morpholin-4-yl)][Bip(4'-COOH)][Bip(4'-NHAc)][Sar]YD[dR]V[Morpholine(3S-CO)]VYLCG-NH2; thioether N-13), with 50 to 200 nM. Then `CC(=O)Nc1ccc(-c2ccc(C[C@@H]3NC(=O)[C@H](Cc4ccc(-c5ccc(C(=O)O)cc5)cc4)NC(=O)[C@H](CN4CCOCC4)NC(=O)CSC[C@@H](C(=O)NCC(N)=O)NC(=O)[C@H](CC(C)C)NC(=O)[C@H](Cc4ccc(O)cc4)NC(=O)[C@H](C(C)C)NC(=O)[C@@H]4CCCCN4C(=O)[C@H](C(C)C)NC(=O)[C@@H](CCCNC(=N)N)NC(=O)[C@H](CC(=O)O)NC(=O)[C@H](Cc4ccc(O)cc4)NC(=O)CN(C)C3=O)cc2)cc1` [Example 168] ({CH2CO}-[Ala(morpholin-4-yl)][Bip(4'-COOH)][Bip(4'-NHAc)][Sar]YD[dR]V[Pip]VYLCG-NH2; thioether N-13), with less than 50 nM; and `CC(=O)Nc1ccc(-c2ccc(C[C@@H]3NC(=O)[C@H](Cc4ccc(-c5ccccc5)cc4)NC(=O)[C@H](CN4CCOCC4)NC(=O)CSC[C@@H](C(=O)N[C@@H](CCCCN)C(=O)O)NC(=O)[C@H](CC(C)C)NC(=O)[C@H](CCCNC(=N)N)NC(=O)[C@H](C(C)C)NC(=O)[C@@H]4CCCN4C(=O)[C@H](C(C)C)NC(=O)[C@@H](CCCNC(=N)N)NC(=O)[C@H](CC(=O)O)NC(=O)[C@@H]4CCCN4C(=O)CN(C)C3=O)cc2)cc1` [Example 169] ({CH2CO}-[Ala(morpholin-4-yl)][Bip][Bip(4'-NHAc)][Sar]PD[dR]VPVRLCK-OH; thioether N-13), with less than 50 nM.

Turning to `CC(=O)Nc1ccc(-c2ccc(C[C@@H]3NC(=O)[C@H](Cc4ccc(-c5ccccc5)cc4)NC(=O)[C@H](CN4CCOCC4)NC(=O)CSC[C@@H](C(=O)NCC(N)=O)NC(=O)[C@H](CC(C)C)NC(=O)[C@H](Cc4ccc(O)cc4)NC(=O)[C@H](C(C)C)NC(=O)[C@@H]4CCN4C(=O)[C@H](C(C)C)NC(=O)[C@@H](CCCNC(=N)N)NC(=O)[C@H](CC(=O)O)NC(=O)[C@H](Cc4ccccn4)NC(=O)CN(C)C3=O)cc2)cc1` [Example 170] ({CH2CO}-[Ala(morpholin-4-yl)][Bip][Bip(4'-NHAc)][Sar][2Pal]D[dR]V[Aze]VYLCG-NH2; thioether N-13), the IC50 is less than 50 nM.
